Results taken from PubChem BioAssay (NCI).
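Briefly, cells in 96-well plates were exposed to five compound concentrations for 48 h, and endpoints were estimated by linear interpolation. GI50: concentration for 50% inhibition of growth. TGI marks complete inhibition of growth.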

Legend:
Assay in all cases: growth of human tumour cells (NCI), 48 h
[1] = test system: HS 578T breast
[2] = test system: HL-60(TB) leukemia
[3] = test system: MCF7 breast
[4] = test system: PC-3 prostate
[5] = test system: M14 melanoma
[6] = test system: UACC-257 melanoma
[7] = test system: A498 renal
[8] = test system: NCI-H23 lung
[9] = test system: SNB-75 CNS
[10] = test system: MALME-3M melanoma
[11] = test system: HOP-62 NSCLC
[12] = test system: SNB-19 CNS
[13] = test system: NCI-H522 lung
[14] = test system: UACC-62 melanoma
[15] = test system: MDA-MB-231 breast
[16] = test system: SK-OV-3 ovarian
[17] = test system: MDA-MB-435
[18] = test system: OVCAR-8 ovarian
[19] = test system: HOP-92 NSCLC
[20] = test system: K-562 leukemia
[21] = test system: UO-31 renal
[22] = test system: SK-MEL-28 melanoma
[23] = test system: DU-145 prostate
[24] = test system: SN12C renal
[25] = test system: OVCAR-3 ovarian
[26] = test system: OVCAR-4 ovarian
[27] = test system: EKVX NSCLC
[28] = test system: TK-10 renal
[29] = test system: HCT-15 colon
[30] = test system: T-47D breast
[31] = test system: SF-295 CNS
[32] = test system: COLO 205 colon
[33] = test system: SK-MEL-5 melanoma
[34] = test system: HCC-2998 colon
[35] = test system: CCRF-CEM leukemia
[36] = test system: HCT-116 colon
[37] = test system: HT29 colon
[38] = test system: U251 CNS
[39] = test system: BT-549 breast
[40] = test system: LOX IMVI melanoma
[41] = test system: RPMI-8226 leukemia
[42] = test system: CAKI-1 renal
[43] = test system: A549 NSCLC
[44] = test system: SK-MEL-2 melanoma
[45] = test system: SF-539 CNS
[46] = test system: NCI-H460 lung
[47] = test system: OVCAR-5 ovarian
[48] = test system: ACHN renal
[49] = test system: NCI/ADR-RES ovarian
[50] = test system: IGROV1 ovarian
[51] = test system: 786-0 renal
[52] = test system: SF-268 CNS
[53] = test system: RXF 393 renal
[54] = test system: KM12 colon
[55] = test system: NCI-H226 lung
[56] = test system: SW-620 colon
[57] = test system: MOLT-4 leukemia
[58] = test system: SR leukemia

Compound: CC(C)=CC(=O)N[C@H]1CC[C@]2(C)C3CC[C@]4(C)C(C(C)N(C)C)=CCC4C3CCC2[C@H]1O (stereo partly specified)
- GI50 [1]: 4.25 µM
- TGI [1]: 18.8 µM
- GI50 [2]: 3.34 µM
- TGI [2]: 9.11 µM
- GI50 [3]: 3.06 µM
- TGI [3]: 13.6 µM
- GI50 [4]: 3.88 µM
- TGI [4]: 18.1 µM
- GI50 [5]: 1920 nM
- TGI [5]: 3.74 µM
- GI50 [6]: 2390 nM
- TGI [6]: 5.59 µM
- GI50 [7]: 3.82 µM
- TGI [7]: 16.6 µM
- GI50 [8]: 9.27 µM
- TGI [8]: 22.7 µM
- GI50 [9]: 8.76 µM
- TGI [9]: 21.8 µM
- GI50 [10]: 1890 nM
- TGI [10]: 4.23 µM
- GI50 [11]: 2610 nM
- TGI [11]: 7.49 µM
- GI50 [12]: 14.8 µM
- TGI [12]: 28.1 µM
- GI50 [13]: 5.61 µM
- TGI [13]: 20.7 µM
- GI50 [14]: 1.95 µM
- TGI [14]: 3.77 µM
- GI50 [15]: 3.34 µM
- TGI [15]: 9.79 µM
- GI50 [16]: 12.1 µM
- TGI [16]: 24.6 µM
- GI50 [17]: 2000 nM
- TGI [17]: 4.53 µM
- GI50 [18]: 13.9 µM
- TGI [18]: > 51.8 µM
- GI50 [19]: 7.72 µM
- TGI [19]: 22 µM
- GI50 [20]: 1.58 µM
- TGI [20]: 4.52 µM
- GI50 [21]: 1880 nM
- TGI [21]: 4.51 µM
- GI50 [22]: 1.82 µM
- TGI [22]: 3.4 µM
- GI50 [23]: 8.68 µM
- TGI [23]: 21.4 µM
- GI50 [24]: 5.27 µM
- TGI [24]: 19.1 µM
- GI50 [25]: 4.12 µM
- TGI [25]: 15.7 µM
- GI50 [26]: 5.88 µM
- TGI [26]: 20.8 µM
- GI50 [27]: 6.38 µM
- TGI [27]: 23.2 µM
- GI50 [28]: 11 µM
- TGI [28]: 26.3 µM
- GI50 [29]: 1.55 µM
- TGI [29]: 4.2 µM
- GI50 [30]: 2580 nM
- TGI [30]: 9.59 µM
- GI50 [31]: 2.64 µM
- TGI [31]: 9.07 µM
- GI50 [32]: 1690 nM
- TGI [32]: 3.3 µM
- GI50 [33]: 1480 nM
- TGI [33]: 2.95 µM
- GI50 [34]: 5.22 µM
- TGI [34]: 17.8 µM
- GI50 [35]: 2.92 µM
- TGI [35]: 14.3 µM
- GI50 [36]: 1770 nM
- TGI [36]: 4.21 µM
- GI50 [37]: 676 nM
- TGI [37]: 2920 nM
- GI50 [38]: 3.89 µM
- TGI [38]: 15.9 µM
- GI50 [39]: 5.99 µM
- TGI [39]: 20.8 µM
- GI50 [40]: 1.62 µM
- TGI [40]: 3.49 µM
- GI50 [41]: 2.41 µM
- TGI [41]: 9.3 µM
- GI50 [42]: 5.63 µM
- TGI [42]: 14.7 µM
- GI50 [43]: 5.92 µM
- TGI [43]: 22.9 µM
- GI50 [44]: 12.4 µM
- TGI [44]: 28.7 µM
- GI50 [45]: 1590 nM
- TGI [45]: 3.38 µM
- GI50 [46]: 1870 nM
- TGI [46]: 3.75 µM
- GI50 [47]: 10.9 µM
- TGI [47]: 25.2 µM
- GI50 [48]: 7.95 µM
- TGI [48]: 21.3 µM
- GI50 [49]: 10.3 µM
- TGI [49]: 25.5 µM
- GI50 [50]: 8.5 µM
- TGI [50]: 25.3 µM
- GI50 [51]: 2850 nM
- TGI [51]: 9.23 µM
- GI50 [52]: 2.35 µM
- TGI [52]: 6.63 µM
- GI50 [53]: 2.7 µM
- TGI [53]: 9.74 µM
- GI50 [54]: 3.48 µM
- TGI [54]: 14.2 µM
- GI50 [55]: 8.49 µM
- TGI [55]: 25.7 µM
- GI50 [56]: 1970 nM
- TGI [56]: 4.55 µM
- GI50 [57]: 2.81 µM
- TGI [57]: 11.4 µM

Compound: CCCCCC[C@@H](C)NC(=O)c1ccc(Nc2nc3ccccc3c3occc23)cc1
- GI50 [1]: 3.79 µM
- TGI [1]: > 100 µM
- GI50 [2]: 5.14 µM
- TGI [2]: > 100 µM
- GI50 [3]: 7.58 µM
- TGI [3]: > 100 µM
- GI50 [4]: 3.45 µM
- TGI [4]: > 100 µM
- GI50 [5]: 2230 nM
- TGI [5]: 8.3 µM
- GI50 [6]: 2190 nM
- TGI [6]: 5.66 µM
- GI50 [7]: 2.4 µM
- TGI [7]: 7.54 µM
- GI50 [8]: 2.06 µM
- TGI [8]: 6.59 µM
- GI50 [9]: 2.25 µM
- TGI [9]: 6.38 µM
- GI50 [11]: 3280 nM
- TGI [11]: 27.7 µM
- GI50 [12]: 5.54 µM
- TGI [12]: > 100 µM
- GI50 [13]: 1.31 µM
- TGI [13]: 4.54 µM
- GI50 [14]: 32.8 µM
- TGI [14]: > 100 µM
- GI50 [15]: 10.2 µM
- TGI [15]: > 100 µM
- GI50 [16]: 4.25 µM
- TGI [16]: > 100 µM
- GI50 [17]: 2980 nM
- TGI [17]: > 100 µM
- GI50 [18]: 3.08 µM
- TGI [18]: 16.5 µM
- GI50 [19]: 1.99 µM
- TGI [19]: 7.91 µM
- GI50 [20]: 4.82 µM
- TGI [20]: > 100 µM
- GI50 [21]: 2870 nM
- TGI [21]: 21 µM
- GI50 [22]: 5.5 µM
- TGI [22]: > 100 µM
- GI50 [23]: 1.92 µM
- TGI [23]: 13.2 µM
- GI50 [24]: 40.8 µM
- TGI [24]: > 100 µM
- GI50 [25]: 2.88 µM
- TGI [25]: > 100 µM
- GI50 [27]: 1.52 µM
- TGI [27]: 5.04 µM
- GI50 [28]: 18.5 µM
- TGI [28]: 70.2 µM
- GI50 [29]: 8.93 µM
- TGI [29]: > 100 µM
- GI50 [31]: 4.39 µM
- TGI [31]: > 100 µM
- GI50 [32]: 3080 nM
- GI50 [33]: 1660 nM
- TGI [33]: 4.01 µM
- GI50 [34]: 2.51 µM
- TGI [34]: 9.16 µM
- GI50 [35]: 3.89 µM
- TGI [35]: 15.4 µM
- GI50 [58]: 18.9 µM
- TGI [58]: 45.5 µM
- GI50 [36]: 1920 nM
- TGI [36]: 11.3 µM
- GI50 [37]: 2810 nM
- TGI [37]: > 100000 nM
- GI50 [38]: 38.8 µM
- TGI [38]: > 100 µM
- GI50 [39]: 2.35 µM
- TGI [39]: 7.61 µM
- GI50 [40]: 19.3 µM
- TGI [40]: 42.4 µM
- GI50 [41]: 3.75 µM
- TGI [41]: > 100 µM
- GI50 [42]: 2.82 µM
- TGI [42]: 28.3 µM
- GI50 [43]: 3.17 µM
- TGI [43]: > 100 µM
- GI50 [44]: 2.51 µM
- TGI [44]: 7.23 µM
- GI50 [45]: 2070 nM
- TGI [45]: 5.29 µM
- GI50 [46]: 3870 nM
- TGI [46]: > 100 µM
- GI50 [47]: 5.72 µM
- TGI [47]: > 100 µM
- GI50 [48]: 24.8 µM
- TGI [48]: 91.7 µM
- GI50 [49]: 2.53 µM
- TGI [49]: > 100 µM
- GI50 [50]: 1.61 µM
- TGI [50]: 4.54 µM
- GI50 [51]: 2900 nM
- TGI [51]: 26.3 µM
- GI50 [52]: 5.73 µM
- TGI [52]: > 100 µM
- GI50 [53]: 3.41 µM
- TGI [53]: 9.84 µM
- GI50 [54]: 38 µM
- TGI [54]: > 100 µM
- GI50 [56]: 3380 nM
- TGI [56]: > 100 µM
- GI50 [57]: 3.71 µM
- TGI [57]: > 100 µM
